Data set [1] has as its system subq human A2058 melanoma tumors. Kind of data set: Tumor growth inhibition, different doses and regimens, subq A2058 (Example 4.5). The following applies: day 21. The class given is in vivo, mice. On the procedure: Six to eight weeks old female BALB/c nude mice (Shanghai Lingchang Bio-Technology Co. Ltd, Shanghai, China) were unilaterally and subcutaneously injected in the right flank with 5×10^6 A2058 tumor cells in PBS (0.1 mL/mouse). At the time of randomization, the TVs ranged between 50.3 and 156.3 mm3 (median 104.8, IQR=91.9-127.1). After randomization, the mice received different miRNA-193a dosing concentrations under different dosing regimen (see Table 10 for dosing scheme). The BRAF-inhibitor vemurafenib was also included. Body weights and TVs (caliper measurements) were determined three times/week. *QDx3,QDx4=one injection per day for 3 or 4 consecutive days; BIW=twice a week, BID=twice daily. Po=per oral.

Data set [2] relates to A549, H460. Kind of data set: Cell cycle arrest profile (nuclei imaging or flow cytometry). The class given is cell-based, human. The following applies: 10 nM. The protocol: Depending on cancer cell type 3000-6000 cells were seeded in a 96 well plate. After cells attached, they were transfected with different concentrations of miRNA-193a and cell cycle profile was measured at different time points. At selected time points media was aspirated from wells and DNA staining solution (Hoescht 33342/Saponin/PFA) was added to each well and incubated for 2 hours at 37° C. Then, cell images were taken using Thermo Celllnsite in which nuclei were specified and nuclei intensity were measured. Nuclei intensity was analyzed using program R to determine the different phases of the cell cycle (G0/G1, S, G2/M) based on the DNA content.
To specifically detect the cells that are undergoing apoptosis, FITC Annexin V apoptosis detection kit (BD pharmingen) was used. […] After cells attached, they were transfected with different concentrations of miRNA-193a and apoptosis assay was measured at different time points following the manufacturer's protocol. With this assay we have detected the percentage of apoptotic cells indicating the SubG1 phase of the cell cycle.
Different biological effects of miRNA-193a-3p have been tested in various cancer cell lines (see Table 13). […] For all experiments controls (untreated, mock and scrambled) were measured. […] All the results have been quantified and normalized to the mock control. […]

Another data set relates to NT5E and ENTPD1. Kind of data set: NT5E and ENTPD1 expression at mRNA and protein level (RT-PCR, western blot). The format is cell-based. Conditions: 10 nM, variety of cell lines. The protocol:
To prepare cDNA, first 100 ng total RNA was mixed with Random Hexamers (Qiagen; final concentration 2 μM) in a final volume of 12.5 μl in NFW, denatured for 5 min at 70° C. and immediately cooled on ice. Next, 7.5 μl of a cDNA synthesis mix was added, consisting of 4 μl 5×RT Buffer (Promega), 0.4 μl 25 mM dNTPs (Promega), 1 μl 200 U/μL MMLV RT-enzyme (Promega), 0.5 μL 40 U/μL RNAse Inhibitor (Promega) and 1.6 μL NFW. The following cDNA synthesis protocol was used:
Approximately 1×10^6 cells were harvested and lysed in immunoprecipitation RIPA lysis buffer and the lysates were blotted onto a PVDF membrane. Membranes were probed overnight with primary antibodies and bound antibodies were visualized using HRP-linked secondary antibodies (Cell-Signalling). The antibodies used for western blot included anti-NT5E (D7F9A) from Cell Signalling Technology, and anti-αTubulin from Santa Cruz. αTubulin was used as a loading control for the western blot experiment.
To assess the impact of miRNA-193a-3p on adenosine generation, the release of free phosphate in A2058 melanoma cells was measured as a read out for ATP, ADP, and AMP dephosphorylation in supernatants. […] Similar results were found by measuring the direct amount of adenosine in cell culture supernatants (FIG. 16B). Further, the role of miRNA-193a in A2058 cancer cell migration was investigated.
A general note: Immunoblotting shows a protein as a band on a membrane.

The next data set has as its system 4T1. Kind of data set: Cell viability (MTS assay or cell count). The class given is cell-based, mouse. Conditions: 10 nM; TNBC 4T1; normalized to mock. On the procedure: (§1) Depending on cancer cell type 3000-6000 cells were seeded in a 96 well plate. After cells attached, they were transfected with different concentrations of miRNA-193a and viability was measured at different time points. Viability measurement was performed using CellTiter 96 AQueous One Solution Cell Proliferation Assay (Promega). 20 μL of MTS reagent was added to 100 μL of media in each well in 96-well plate and incubated for 2 hours at 37° C. Absorbance was measured at 490 nm for each sample in 96 well plate reader.
(§2) Different biological effects of miRNA-193a-3p have been tested in various cancer cell lines (see Table 13). For this, various cells were treated with miRNA-193a at different concentrations (1, 3, 10 nM). For all experiments controls (untreated, mock and scrambled) were measured. […] Data shown in Table 13 are the results for miRNA-193a at 10 nM concentration at indicated time points. All the results have been quantified and normalized to the mock control.
(§3) miRNA-193a treatment in various cancer cell lines decreased cell viability over time as measured by either an MTS assay or by cell count. It enhanced apoptosis induction over time as measured by a caspase 3/7 apoptosis assay. […] It is of note that due to intrinsic characteristics and gene mutation status of each cell line, performing one method to detect apoptosis is not always ideal for all cell lines.

The test system of another data set is HeP3B, SNU449. Kind of data set: Cell viability (MTS assay or cell count). The class given is cell-based, human. The following applies: 10 nM, HCC HeP3B, normalized to mock. The protocol: as §1, §2, §3
On the technique in general: Tetrazolium dyes change colour on reduction, which living cells bring about.

For a further data set, the system named is A2058. Kind of data set: Cell viability (MTS assay or cell count). The class given is cell-based, human. The following applies: 10 nM; Melanoma A2058; normalized to mock. The protocol: as §1, §2, §3
Data set [3] concerns A549, H460. Kind of data set: Cell viability (MTS assay or cell count). The format is cell-based, human. The following applies: 10 nM; NSCLC A549, H460; normalized to mock. The protocol: as §1, §2, §3
The next data set deals with Huh7. Kind of data set: Cell viability (MTS assay or cell count). The class given is cell-based, human. Conditions: 10 nM; HCC Huh7; normalized to mock. On the procedure: as §1, §2, §3

“miRNA-193a: duplex of the miRNA-193a-3p of SEQ ID NO: 218 (mimic, sense) with antisense strand SEQ ID NO: 219; naked in vitro, formulated in vivo (sense UGGGACUUUGUAGGCCAGUUTT; antisense AACUGGCCUACAAAGUCCCAGU; chemistry not given here; listed as Homo sapiens)”: the “Tumor growth (relative tumor volume)” value in data set [1] (QDx3 6.7 mg/kg iv x3 weeks, nanoparticles according to the invention) is “significant reduction of tumor growth”; in data set [1] (the other dosing regimen (10 mg/kg BIW; 5 mg/kg QDx4)), “mild trend”. In the data set on A549, H460 [2], the “Cell cycle arrest (72 h)” value is given as “SubG1”. Besides, the “Expression of both enzymes involved in adenosine generation pathway (NT5E, ENTPD1)” value in the data set with NT5E and ENTPD1 is “downregulated the expression of both enzymes”. Further, the “Viability (96 h)” value is “↓ (Viability > 50%)” in the data set with 4T1; “↓↓ (Viability < 50%)” with HeP3B, SNU449; “↓↓ (Viability < 50%)” in the data set with A2058; “↓↓ (Viability < 50%)” with A549, H460 [3]; “↓↓ (Viability < 50%)” with Huh7.

Source of the values: patent US20210038732A1, “ANTICANCER MICRORNA AND LIPID FORMULATIONS THEREOF” (INTERNA TECHNOLOGIES B.V., priority 2018, published 2021).
